Test results from patent US20240158348A1, “HERBICIDAL CYCLIC AMIDES N-SUBSTITUTED WITH A HALOALKYLSULFONYLANILIDE GROUP” (FMC Corporation, priority 2021, published 2024).

What was measured:
Format in all cases: in vivo
[1] = system: oat, wild (wild oat, Avena fatua); experiment: Test C postemergence, wild oat; settings: visual injury, 0 to 100 scale (0 no effect, 100 complete control)
kochia (Bassia scoparia) [2] = experiment: Test C preemergence, kochia; settings: 0 is no effect, 100 is complete control
Summary of the method: (§1)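 Herbicidal effect was estimated visually on a 0–100 scale 10 or 12 days after spraying. Formulation: non-phytotoxic solvent mixture with surfactant. Timing: directed soil spray after sowing, or postemergence on seedlings bearing one or two leaves.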

[3] = system: ducksalad (Heteranthera limosa); experiment: Test D flooded paddy test, ducksalad; parameters: key: 0 = no effect, 100 = complete control; settings: 250 g ai/ha, Flood; applied to paddy water at 2-leaf stage; visual rating after 13 days; scale 0 (no effect) to 100 (complete control)
Summary of the method: (§2)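 Visual response scores run 0 (no effect) to 100 (complete control), judged against controls 13 days after treatment. Compounds were added to paddy water 3 cm deep over soil, around plants at the 2-leaf stage kept in a greenhouse.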

[4] = system: ryegrass, Italian (Italian ryegrass, Lolium multiflorum); experiment: Test C postemergence, Italian ryegrass; settings: visual injury, 0 to 100 scale (0 no effect, 100 complete control)
Summary of the method: as §1

[5] = system: oat, wild (wild oat, Avena fatua); experiment: Test C preemergence, wild oat; settings: 0 is no effect, 100 is complete control
Summary of the method: as §1

[6] = system: ryegrass, Italian (Italian ryegrass, Lolium multiflorum); experiment: Test C preemergence, Italian ryegrass; settings: 0 is no effect, 100 is complete control
Summary of the method: as §1

[7] = system: blackgrass (Alopecurus myosuroides); experiment: Test C postemergence, blackgrass; settings: visual injury, 0 to 100 scale (0 no effect, 100 complete control)
Summary of the method: as §1

corn (Zea mays) [8] = experiment: Test C preemergence, corn; settings: 0 is no effect, 100 is complete control
Summary of the method: (§3)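 Greenhouse pot test. Compounds in a non-phytotoxic solvent with surfactant were applied to a loam–sand soil mix either preemergence as a directed spray or postemergence to plants at the one- to two-leaf stage; 0–100 visual ratings followed after 10 or 12 days.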

[9] = system: wheat (Triticum aestivum); experiment: Test C preemergence, wheat; settings: 0 is no effect, 100 is complete control
[10] = system: pigweed, palmer (palmer amaranth, Amaranthus palmeri); experiment: Test C postemergence, palmer amaranth; settings: visual injury, 0 to 100 scale (0 no effect, 100 complete control)
Summary of the method: as §1

rice (Oryza sativa) = experiment: Test D flooded paddy test, rice; parameters: key: 0 = no effect, 100 = complete control; settings: 250 g ai/ha, Flood; applied to paddy water at 2-leaf stage; visual rating after 13 days; scale 0 (no effect) to 100 (complete control)
Summary of the method: as §2

[11] = system: wheat (Triticum aestivum); experiment: Test C postemergence, wheat; settings: visual injury, 0 to 100 scale (0 no effect, 100 complete control)
Summary of the method: as §1

[12] = system: foxtail, giant (giant foxtail, Setaria faberi); experiment: Test C postemergence, giant foxtail; settings: visual injury, 0 to 100 scale (0 no effect, 100 complete control)
[13] = system: barnyardgrass (Echinochloa crusgalli); experiment: Test D flooded paddy test, barnyardgrass; parameters: key: 0 = no effect, 100 = complete control; settings: 250 g ai/ha, Flood; applied to paddy water at 2-leaf stage; visual rating after 13 days; scale 0 (no effect) to 100 (complete control)
Summary of the method: as §2

[14] = system: foxtail, giant (giant foxtail, Setaria faberi); experiment: Test C preemergence, giant foxtail; settings: 0 is no effect, 100 is complete control
Summary of the method: as §1

[15] = system: sedge, umbrella (small-flower umbrella sedge, Cyperus difformis); experiment: Test D flooded paddy test, umbrella sedge; parameters: key: 0 = no effect, 100 = complete control; settings: 250 g ai/ha, Flood; applied to paddy water at 2-leaf stage; visual rating after 13 days; scale 0 (no effect) to 100 (complete control)
Summary of the method: as §2

[16] = system: ragweed (common ragweed, Ambrosia artemisiifolia); experiment: Test C preemergence, ragweed; settings: 0 is no effect, 100 is complete control
Summary of the method: as §3

[17] = system: blackgrass (Alopecurus myosuroides); experiment: Test C preemergence, blackgrass; settings: 0 is no effect, 100 is complete control
Source text: (§4) Seeds of plant species selected from blackgrass (Alopecurus myosuroides), corn (Zea mays), foxtail, giant (giant foxtail, Setaria faberi), goosegrass (Eleusine indica), kochia (Bassia scoparia), oat, wild (wild oat, Avena fatua), pigweed, palmer (palmer amaranth, Amaranthus palmeri), ragweed (common ragweed, Ambrosia artemisiifolia), ryegrass, Italian (Italian ryegrass, Lolium multiflorum), soybean (Glycine max) and wheat (Triticum aestivum) were planted into a blend of loam soil and sand and treated preemergence with a directed soil spray using test chemicals formulated in a non-phytotoxic solvent mixture which included a surfactant.
(§5) At the same time, plants selected from these crop and weed species and also galium (catchweed bedstraw, Galium aparine) and horseweed (Erigeron canadensis) were planted in pots containing the same blend of loam soil and sand and treated with postemergence applications of test chemicals formulated in the same manner. Plants ranged in height from 2 to 10 cm and were in the one- to two-leaf stage for the postemergence treatment. Treated plants and untreated controls were maintained in a greenhouse for 10 or 12 days, after which time all treated plants were compared to untreated controls and visually evaluated for injury. Plant response ratings, summarized in Table A, are based on a 0 to 100 scale where 0 is no effect and 100 is complete control. A dash (-) response means no test result.

kochia (Bassia scoparia) [18] = experiment: Test C postemergence, kochia; settings: visual injury, 0 to 100 scale (0 no effect, 100 complete control)
Summary of the method: as §1

soybean (Glycine max) [19] = experiment: Test C preemergence, soybean; settings: 0 is no effect, 100 is complete control
Summary of the method: as §1

[20] = system: goosegrass (Eleusine indica); experiment: Test C preemergence, goosegrass; settings: 0 is no effect, 100 is complete control
Summary of the method: as §3

soybean (Glycine max) [21] = experiment: Test C postemergence, soybean; settings: visual injury, 0 to 100 scale (0 no effect, 100 complete control)
corn (Zea mays) [22] = experiment: Test C postemergence, corn; settings: visual injury, 0 to 100 scale (0 no effect, 100 complete control)
[23] = system: ragweed (common ragweed, Ambrosia artemisiifolia); experiment: Test C postemergence, ragweed; settings: visual injury, 0 to 100 scale (0 no effect, 100 complete control)
Summary of the method: as §1

[24] = system: goosegrass (Eleusine indica); experiment: Test C postemergence, goosegrass; settings: visual injury, 0 to 100 scale (0 no effect, 100 complete control)
Summary of the method: as §1

[25] = system: pigweed, palmer (palmer amaranth, Amaranthus palmeri); experiment: Test C preemergence, palmer amaranth; settings: 0 is no effect, 100 is complete control
Summary of the method: as §1

[26] = system: galium (catchweed bedstraw, Galium aparine); experiment: Test C postemergence, galium; settings: visual injury, 0 to 100 scale (0 no effect, 100 complete control)
Source text: as §4, §5

[27] = system: horseweed (Erigeron canadensis); experiment: Test C postemergence, horseweed; settings: visual injury, 0 to 100 scale (0 no effect, 100 complete control)
Source text: as §4, §5

C#CC(C)OC1CCN(c2cc(NS(=O)(=O)C(F)(F)F)c(C)cc2C)C1=O (stereo not shown) [Compound 58]
70: Ryegrass, Italian plant response rating ([4]; 125 g ai/ha Postemergence) | Blackgrass plant response rating ([7]; 125 g ai/ha Postemergence) | Wheat plant response rating ([11]; 31 g ai/ha Postemergence) | Wheat plant response rating ([11]; 125 g ai/ha Postemergence) | Kochia plant response rating (kochia (Bassia scoparia) [18]; 31 g ai/ha Postemergence) | Ragweed plant response rating ([23]; 31 g ai/ha Postemergence)
20: Plant response rating (0 to 100 scale), Corn (corn (Zea mays) [8]; 31 g ai/ha Preemergence)
80: Plant response rating (0 to 100 scale), Kochia (kochia (Bassia scoparia) [2]; 31 g ai/ha Preemergence) | Plant response rating, Ducksalad [3] | Pigweed, Palmer plant response rating ([10]; 125 g ai/ha Postemergence) | Plant response rating (0 to 100 scale), Ragweed ([16]; 31 g ai/ha Preemergence) | Plant response rating (0 to 100 scale), Blackgrass ([17]; 31 g ai/ha Preemergence)
95: Plant response rating, Sedge, Umbrella [15]
90: Oat, Wild plant response rating ([1]; 125 g ai/ha Postemergence) | Plant response rating (0 to 100 scale), Kochia (kochia (Bassia scoparia) [2]; 125 g ai/ha Preemergence) | Plant response rating (0 to 100 scale), Oat, Wild ([5]; 31 g ai/ha Preemergence) | Plant response rating (0 to 100 scale), Ryegrass, Italian ([6]; 31 g ai/ha Preemergence) | Plant response rating (0 to 100 scale), Wheat ([9]; 31 g ai/ha Preemergence) | Foxtail, Giant plant response rating ([12]; 125 g ai/ha Postemergence) | Plant response rating, Barnyardgrass [13] | Plant response rating (0 to 100 scale), Ragweed ([16]; 125 g ai/ha Preemergence) | Kochia plant response rating (kochia (Bassia scoparia) [18]; 125 g ai/ha Postemergence) | Soybean plant response rating (soybean (Glycine max) [21]; 125 g ai/ha Postemergence) | Corn plant response rating (corn (Zea mays) [22]; 125 g ai/ha Postemergence) | Ragweed plant response rating ([23]; 125 g ai/ha Postemergence) | Galium plant response rating ([26]; 31 g ai/ha Postemergence) | Galium plant response rating ([26]; 125 g ai/ha Postemergence) | Horseweed plant response rating ([27]; 31 g ai/ha Postemergence) | Horseweed plant response rating ([27]; 125 g ai/ha Postemergence)
60: Oat, Wild plant response rating ([1]; 31 g ai/ha Postemergence) | Ryegrass, Italian plant response rating ([4]; 31 g ai/ha Postemergence) | Plant response rating, Rice (rice (Oryza sativa)) | Foxtail, Giant plant response rating ([12]; 31 g ai/ha Postemergence) | Soybean plant response rating (soybean (Glycine max) [21]; 31 g ai/ha Postemergence) | Corn plant response rating (corn (Zea mays) [22]; 31 g ai/ha Postemergence)
100: Plant response rating (0 to 100 scale), Oat, Wild ([5]; 125 g ai/ha Preemergence) | Plant response rating (0 to 100 scale), Ryegrass, Italian ([6]; 125 g ai/ha Preemergence) | Plant response rating (0 to 100 scale), Corn (corn (Zea mays) [8]; 125 g ai/ha Preemergence) | Plant response rating (0 to 100 scale), Wheat ([9]; 125 g ai/ha Preemergence) | Plant response rating (0 to 100 scale), Foxtail, Giant ([14]; 31 g ai/ha Preemergence) | Plant response rating (0 to 100 scale), Foxtail, Giant ([14]; 125 g ai/ha Preemergence) | Plant response rating (0 to 100 scale), Blackgrass ([17]; 125 g ai/ha Preemergence) | Plant response rating (0 to 100 scale), Soybean (soybean (Glycine max) [19]; 31 g ai/ha Preemergence) | Plant response rating (0 to 100 scale), Soybean (soybean (Glycine max) [19]; 125 g ai/ha Preemergence) | Plant response rating (0 to 100 scale), Goosegrass ([20]; 31 g ai/ha Preemergence) | Plant response rating (0 to 100 scale), Goosegrass ([20]; 125 g ai/ha Preemergence) | Goosegrass plant response rating ([24]; 31 g ai/ha Postemergence) | Goosegrass plant response rating ([24]; 125 g ai/ha Postemergence) | Plant response rating (0 to 100 scale), Pigweed, Palmer ([25]; 31 g ai/ha Preemergence) | Plant response rating (0 to 100 scale), Pigweed, Palmer ([25]; 125 g ai/ha Preemergence)
50: Blackgrass plant response rating ([7]; 31 g ai/ha Postemergence) | Pigweed, Palmer plant response rating ([10]; 31 g ai/ha Postemergence)
